# Assay results from US20240122847A1, “ORAL POLYPEPTIDE FORMULATIONS” (Bhami's Research Laboratory, Pvt. Ltd., priority 2022, published 2024).
# Assays:
# [1] = Summary of bioavailability of the formulations of the Examples compared to SC or IV; conditions: plasma, other: buccal/sublingual
# [2] = Pharmacokinetics of PTH (1-34) in SD rats, sugar truffle buccal/sublingual vs SC, plasma PTH (1-34) ELISA
# Experimental: Pharmacokinetic analysis was conducted in female rats weighing 220-250 grams for 2 days. Rats in the oral treatment group was either fasted overnight or fed prior to the test sample administration. All the test animals in the treatment groups were administered with respective test formulation to the pre-designated animals. The animal was restrained and its head was held vertically, the jaws were pulled away, the tongue was gently lifted with a forceps followed by placement of a polypeptide formulation as described herein buccally/sublingually. After placing a polypeptide formulation as described herein, the snout was held together for about 1-2 mins to prevent the chewing of the polypeptide formulation. The time of dosage of each animal was noted. Blood samples were collected at aforementioned time points 0 min, 15 min, 30 min, 1 hour, 2 hours, 4 hours, 8 hours, 12 hours, 24 hours, and 48 hours into an EDTA-blood collection tubes for the separation of plasma to determine PTH (1-34) levels by ELISA. Plasma samples collected at different time points were analyzed by ELISA kit according to Creative Diagnostics protocol. This kit is based on sandwich enzyme-linked immuno-sorbent assay technology. An antibody, anti-PTH (1-34) was pre-coated onto a 96-well plate. Standards, test samples, and biotin-conjugated reagent were added to the wells and incubated. The HRP-conjugated reagent was then added, and the whole plate was incubated. Unbound conjugates were removed using wash buffer at each stage. TMB substrate was used to quantify the HRP enzymatic reaction. After TMB substrate was added, only wells that contain sufficient PTH (1-34) will produce a blue colored product, which then changes to yellow after adding the acidic stop solution. The intensity of the yellow color is proportional to the PTH (1-34) amount bound on the plate. The Optical Density (OD) was measured spectrophotometrically at 450 nm in a microplate reader, from which the concentration of PTH (1-34) can be calculated.
# PTH (1-34) was analyzed in plasma using a specific enzyme linked immunosorbent assay (ELISA). Pharmacokinetic endpoints were determined using noncompartmental methods using PK Solutions software. AUC was approximated using the trapezoidal rule on the observed concentrations. C max for each PTH (1-34) dose was derived as the maximum of all valid concentrations, and t max was then determined as the corresponding time point to C max. The terminal elimination rate constant (λz) was estimated by log-linear regression on the terminal part of the concentration-time curve, and t ½ was then calculated as t ½=ln 2/λz.
# [3] = female, SD, rat, plasma, 0.49 mg
# [4] = female, SD, rat, plasma, sc, 0.04 mg
smiles,measurement,setting,value
CC[C@H](C)[C@H](NC(=O)[C@H](CCC(=O)O)NC(=O)[C@H](CO)NC(=O)[C@@H](NC(=O)[C@@H](N)CO)C(C)C)C(=O)N[C@@H](CCC(N)=O)C(=O)N[C@@H](CC(C)C)C(=O)N[C@@H](CCSC)C(=O)N[C@@H](Cc1cnc[nH]1)C(=O)N[C@@H](CC(N)=O)C(=O)N[C@@H](CC(C)C)C(=O)NCC(=O)N[C@@H](CCCCN)C(=O)N[C@@H](Cc1cnc[nH]1)C(=O)N[C@@H](CC(C)C)C(=O)N[C@@H](CC(N)=O)C(=O)N[C@@H](CO)C(=O)N[C@@H](CCSC)C(=O)N[C@@H](CCC(=O)O)C(=O)N[C@@H](CCCN=C(N)N)C(=O)N[C@H](C(=O)N[C@@H](CCC(=O)O)C(=O)N[C@@H](Cc1c[nH]c2ccccc12)C(=O)N[C@@H](CC(C)C)C(=O)N[C@@H](CCCN=C(N)N)C(=O)N[C@@H](CCCCN)C(=O)N[C@@H](CCCCN)C(=O)N[C@@H](CC(C)C)C(=O)N[C@@H](CCC(N)=O)C(=O)N[C@@H](CC(=O)O)C(=O)N[C@H](C(=O)N[C@@H](Cc1cnc[nH]1)C(=O)N[C@@H](CC(N)=O)C(=O)N[C@@H](Cc1ccccc1)C(=O)O)C(C)C)C(C)C [PTH (1-34)],bioavailability,[1],> 7%
same,level at 5 min,[2]; [3],3.51 ng/mL
same,level at 0.5 h,[2]; [3],3.07 ng/mL
same,level at 1 h,[2]; [3],2.87 ng/mL
same,level at 2 h,[2]; [3],1.63 ng/mL
same,level at 4 h,[2]; [3],0.214 ng/mL
same,level at 8 h,[2]; [3],0.0337 ng/mL
same,level at 24 h,[2]; [3],6.02 pg/mL
same,bioavailability,"[2]; female, SD, rat, plasma, other: buccal/sublingual, 0.49 mg",7%
same,MRT last,[2]; [4],2.02 h
same,Tmax,[2]; [4],30 min
same,half-life,[2]; [4],268 min
same,level at 0 h,[2]; [4],0.002 pg/mL
same,level at 5 min,[2]; [4],0.403 ng/mL
same,level at 0.5 h,[2]; [4],3.4 ng/mL
same,level at 1 h,[2]; [4],3.27 ng/mL
same,level at 2 h,[2]; [4],2.93 ng/mL
same,level at 4 h,[2]; [4],0.167 ng/mL
same,level at 8 h,[2]; [4],0.0509 ng/mL
same,level at 24 h,[2]; [4],6.2 pg/mL
same,AUC(0-inf),"[2]; female, SD, rat, plasma, sc, 0.04 mg, AUC 0-inf_obs, rats",9.61 ng·h/mL
same,AUC(0-inf),"[2]; female, SD, rat, plasma, sc, 0.04 mg, AUC 0-inf_pred, rats",9.61 ng·h/mL
same,AUC 0-t,"[2]; female, SD, rat, plasma, sc, 0.04 mg, AUC 0-t, rats",9.57 ng·h/mL
same,AUC(t-inf),"[2]; female, SD, rat, plasma, sc, 0.04 mg, AUC t-inf_obs, rats",0.0399 ng·h/mL
same,AUC(t-inf),"[2]; female, SD, rat, plasma, sc, 0.04 mg, AUC t-inf_pred, rats",0.0375 ng·h/mL
same,MRT inf,"[2]; female, SD, rat, plasma, sc, 0.04 mg, MRT 0-inf_obs, rats",2.13 h
same,MRT inf,"[2]; female, SD, rat, plasma, sc, 0.04 mg, MRT 0-inf_pred, rats",2.13 h
same,Mean PTH (1-34) levels,"[2]; rats, GII - Buccal/sublingual 0.49 mg, 0 min",0.000 pg/mL
same,AUMC 0-inf_obs,"[2]; rats, SC, 0.04 mg",20516.940 pg/mL*h^2
same,AUMC 0-inf_pred,"[2]; rats, SC, 0.04 mg",20442.395 pg/mL*h^2
same,AUMC 0-t,"[2]; rats, SC, 0.04 mg",19300.931 pg/mL*h^2
same,AUMC 0-t/0-inf_obs,"[2]; rats, SC, 0.04 mg",0.941
same,AUMC 0-t/0-inf_pred,"[2]; rats, SC, 0.04 mg",0.944
same,AUMC t-inf_obs,"[2]; rats, SC, 0.04 mg",1216.009 pg/mL*h^2
same,AUMC t-inf_pred,"[2]; rats, SC, 0.04 mg",1141.464 pg/mL*h^2
same,Clast_obs,"[2]; rats, SC, 0.04 mg",6.201 pg/mL
same,Clast_pred,"[2]; rats, SC, 0.04 mg",5.821 pg/mL
same,Cmax,"[2]; rats, SC, 0.04 mg",3.401092 ng/mL
same,Lambda_z,"[2]; rats, SC, 0.04 mg",0.155 h⁻¹
same,Tlag,"[2]; rats, SC, 0.04 mg",0.000 h
same,Tlast,"[2]; rats, SC, 0.04 mg",24.000 h
